Laboratory results as given in patent US20220304976A1, “Method of simultaneously treating viral disease caused coronavirus, its variants and mutants using a pharmaceutical micronutrient composition” (priority 2021, published 2022).

Tested on: A549 cells expressing SARS-CoV-2 spike protein fusing with A549 cells overexpressing hACE2
Type: cell-based, human

Theaflavine-3′3-digallate
reduction of cell-cell fusion (in words): can reduce cell-cell fusion

Oc1ccc2c(c1)OC[C@]1(O)Cc3cc(O)c(O)cc3[C@H]21 [Brazilin]
decrease of cell attachment (cell-cell fusion): 40% | reduction of cell-cell fusion (in words): can reduce cell-cell fusion

COc1cc(/C=C/C(=O)CC(=O)/C=C/c2ccc(O)c(OC)c2)ccc1O [Curcumin]
reduction of cell-cell fusion (in words): can reduce cell-cell fusion
